The values below come from patent US10421751B2, “Dihydro-2H-benzo[b][1,4]oxazine sulfonamide and related compounds for use as agonists of RORγ and the treatment of disease” (Lycera Corporation, priority 2015, dated 2019).

In one assay the target is T1, RORγ-LBD (Homo sapiens, UniProt P51449).
T1 construct: made in house; host or cells: SF9 cells, baculovirus expression system; used as diluted lysate
T1 sequence (P51449 269-508 limits assumed): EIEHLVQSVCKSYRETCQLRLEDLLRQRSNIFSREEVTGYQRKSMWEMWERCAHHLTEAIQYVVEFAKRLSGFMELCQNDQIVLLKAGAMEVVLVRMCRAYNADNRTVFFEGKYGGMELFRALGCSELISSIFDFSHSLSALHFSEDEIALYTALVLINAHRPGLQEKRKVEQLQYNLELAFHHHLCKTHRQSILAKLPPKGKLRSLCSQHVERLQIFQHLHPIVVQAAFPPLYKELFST
In words: RORγ-Ligand Binding Domain (LBD) TR-FRET Assay. To be noted: for pEC50: in presence of 2 μM RORγ antagonist ursolic acid, SRC1 coactivator peptide; for TR-FRET Assay Max Response: upper plateau of 4-parameter fit, signal in the absence of ursolic acid or test compound set as 100. The assay is classed as biochemical. The procedure: HIS-tagged RORγ-LBD protein was expressed in SF9 cells using a baculovirus expression system. The lysate was diluted in assay buffer (50 mM Tris pH 7.0, 50 mM KCl, 1 mM EDTA, 0.1 mM DTT, 0.01% BSA) to obtain RORγ-LBD final concentration of ˜3 nM in a 384-well assay plate (need to titrate for each batch of protein).
A stock of biotinylated-LXXLL peptide from coactivator SRC1 (Biotin-[…]) was prepared in assay buffer and added to each well (200 nM final concentration). A solution of Europium tagged anti-HIS antibody (0.6 nM final concentration) and APC-conjugated streptavidin (30 nM final concentration) were also added to each well. RORγ antagonist ursolic acid was also included at a final concentration of 2 μM. Compounds were diluted in DMSO and further diluted in assay buffer with a final DMSO concentration at 1%.
The final assay mixture was incubated overnight at 4° C. or 2 hours at room temperature, and the fluorescence signal was measured on an Envision plate reader: (Excitation filter=340 nm; APC emission=665 nm; Europium emission=615 nm; dichroic mirror=D400/D630; delay time=100 μs, integration time=200 μs). 50% Effective concentration (EC50) values for test compounds were calculated from the quotient of the fluorescence signal at 665 nm divided by the fluorescence signal at 615 nm. The quotient of the fluorescence signals in the absence of ursolic acid or test compound is set as 100. Max Response is defined as the upper plateau in the signal as determined by line-fit using a 4-parameter logistic model in PRISM (GraphPad).

The next assay has as its target T2, Gal4-RORγ-LBD (Homo sapiens, UniProt P51449).
T2 construct: expressed in transfected cells; pcDNA3.1neo plasmid, co-transfected with pGL4.31 Gal4-luciferase reporter
T2 sequence (P51449 269-508 limits assumed): T1 sequence (P51449 269-508 limits assumed)
Briefly: Gal4-RORγ Luciferase Reporter Assay in HEK-293T Cells. The assay is classed as cell-based. To be noted: for pEC50: HEK-293 cells, in presence of 2 μM ursolic acid, overnight incubation, read-out: Ga14-RORγ Assay EC50; for Ga14-RORγ Assay Max Response: upper plateau of 4-parameter fit, luciferase signal in the absence of ursolic acid or test compound defined at 100. The procedure:
In the following protocol, HEK-293 cells were transfected with a construct comprising the Gal4 DNA binding domain fused to the ligand binding domain of RORγ (Gal4-RORγ-LBD) in a pcDNA3.1neo plasmid, and also with a reporter construct comprising pGL4.31 Gal4-luciferase (Promega). Control cells were prepared similarly using empty pcDNA3.1neo and pGL4.31 vectors.
Trans-IT reagent (Mirus, 60 μL) at room temperature was added drop wise to OptiMEM (Invitrogen, 1.5 ml). This reagent mixture was mixed by inversion then incubated for 5 to 30 minutes at room temperature. It then was added to a solution of both expression vectors (5 μg each), mixed, and incubated at room temperature for about 20 minutes. HEK-293 cells were harvested from incubation flasks by removing the media, treating with TrypLE Express (Invitrogen), and incubating until the cells detached from the bottom of the flask (approximately 2-5 minutes). 10 Million cells were collected by centrifugation and re-suspended in 10 mL of Dulbecco's Modified Eagle Medium, High Glucose (DMEM, Invitrogen) containing 10% Fetal Bovine Serum and 100 IU each of penicillin and streptomycin. The re-suspended cells and the transfection mixture were added to a T75 flask, mixed and incubated overnight at 37° C. and 5% CO2.
The cells were harvested as described above, counted, and centrifuged to obtain the desired number of cells, then re-suspended in complete growth media at 0.75×10^6 cells/mL. The RORγ antagonist, ursolic acid, was added to the cells at a final concentration of 2 μM. Cells were plated at 20 μL of cell suspension/well (10,000-15,000 cells/well) in white tissue culture treated 384 well plates. Test compounds were dissolved at 10 mM in DMSO then diluted into complete growth medium to 5× the final intended test concentration. These drug stock solutions, 5 μL/well were added to the tissue culture plate. The final DMSO concentration was 0.2%. The plates were briefly centrifuged then incubated overnight at 37° C. and 5% CO2. To conduct the assay, the tissue culture plates were allowed to equilibrate to room temperature and One-Glo luciferase reagent (Promega, 25 μL/well) was added. The plates were briefly centrifuged then incubated at room temperature for 10 minutes. The luciferase intensity was read on an Envision plate reader (Perkin Elmer). RORγ activity was determined relative to controls and plotted as a function of test compound concentration using PRISM (GraphPad) to determine a 50% effective concentration (EC50). The luciferase signal in the absence of ursolic acid or test compound is defined at 100. The Max Response is the upper plateau in the signal as determined by line-fit using a 4-parameter logistic model in PRISM (GraphPad).
In general terms: A reporter such as luciferase makes a cellular process visible.

pEC50: −log10 of the molar value.

As a reminder, the pEC50 is −log10 of the EC50, conventionally taken in molar units. In the case of `C/C(=C\c1ccc2c(c1)N(S(=O)(=O)c1cccc(C(F)(F)F)c1)C[C@H](CCCc1noc(=O)[nH]1)O2)c1c(F)cccc1Cl`, at RORγ-LBD, the pEC50 is 5.30 to 7.00 and the “TR-FRET Assay Max Response” value is reported as “*** (a value in the range of greater than 150 to 200)”. For the same molecule, on Gal4-RORγ-LBD, the pEC50 was 5.30 to 7.00 and the “Ga14-RORγ Assay Max Response” value is reported as “** (a value in the range of greater than 90 to 150)”.
On to `C[C@@H]1[C@H](n2cc[nH]c2=O)Cc2ccc(/C=C/c3c(F)cccc3C(F)(F)F)cc2N1S(=O)(=O)c1cccc(C(F)(F)F)c1`, for which, at RORγ-LBD, the pEC50 is 5.30 to 7.00 and the “TR-FRET Assay Max Response” value is reported as “*** (a value in the range of greater than 150 to 200)”. Also, on Gal4-RORγ-LBD, the pEC50 is 5.30 to 7.00 and the “Ga14-RORγ Assay Max Response” value is on record as “** (a value in the range of greater than 90 to 150)”.
Consider `C/C(=C\c1ccc2c(c1)N(S(=O)(=O)c1cccc(C(F)(F)F)c1)C[C@H](CCn1cccn1)O2)c1c(F)cccc1Cl`, for which, on RORγ-LBD, the pEC50 was above 7.00 and the “TR-FRET Assay Max Response” value is “*** (a value in the range of greater than 150 to 200)”. In addition, at Gal4-RORγ-LBD, the pEC50 was 5.30 to 7.00 and the “Ga14-RORγ Assay Max Response” value is on record as “** (a value in the range of greater than 90 to 150)”.
The like results for `CCOc1nn(CC)cc1S(=O)(=O)N1C[C@H](CCOc2noc(=O)[nH]2)Oc2ccc(/C=C(\C)c3c(F)cccc3Cl)cc21` were, in that order, above 7.00, “*** (a value in the range of greater than 150 to 200)”, 5.30 to 7.00 and “** (a value in the range of greater than 90 to 150)”.
The like results for `C/C(=C\c1ccc2c(c1)N(S(=O)(=O)c1cccc(C(F)(F)F)c1)C[C@H](Cc1n[nH]c(=O)o1)O2)c1c(F)cccc1Cl` were, in that order, above 7.00, “*** (a value in the range of greater than 150 to 200)”, 5.30 to 7.00 and “* (a value in the range of 40 to 90)”.
The like results for `CCn1cc(S(=O)(=O)N2C[C@H](CCc3n[nH]c(=O)o3)Oc3ccc(/C=C/c4c(Cl)cccc4C(F)(F)F)cc32)c(OCCO)n1` were, in that order, above 7.00, “**** (a value greater than 200)”, 5.30 to 7.00 and “** (a value in the range of greater than 90 to 150)”.
As for `C/C(=C\c1ccc2c(c1)N(S(=O)(=O)c1cccc(C(F)(F)F)c1)C[C@H](CCc1noc(=O)[nH]1)O2)c1c(F)cccc1Cl`, at RORγ-LBD, the pEC50 is above 7.00 and the “TR-FRET Assay Max Response” value was “*** (a value in the range of greater than 150 to 200)”. Further, on Gal4-RORγ-LBD, the pEC50 is 5.30 to 7.00 and the “Ga14-RORγ Assay Max Response” value was “*** (a value in the range of greater than 150 to 200)”.
For `C/C(=C\c1ccc2c(c1)N(S(=O)(=O)c1cccc(C(F)(F)F)c1)C[C@H](Oc1n[nH]c(=O)[nH]1)C2)c1c(F)cccc1Cl`, on RORγ-LBD, the pEC50 was above 7.00 and the “TR-FRET Assay Max Response” value is “*** (a value in the range of greater than 150 to 200)”. In addition, at Gal4-RORγ-LBD, the negative-log EC50 (pEC50) was 5.00 to 5.30 and the “Ga14-RORγ Assay Max Response” value is given as “** (a value in the range of greater than 90 to 150)”.
In the same order, the values of `C/C(=C\c1ccc2c(c1)N(S(=O)(=O)c1cccc(C(F)(F)F)c1)C[C@H](Oc1noc(=O)[nH]1)C2)c1c(F)cccc1Cl` are 5.30 to 7.00, “*** (a value in the range of greater than 150 to 200)”, 5.30 to 7.00 and “** (a value in the range of greater than 90 to 150)”.
The like results for `C/C(=C\c1ccc2c(c1)N(S(=O)(=O)c1cccc(C(F)(F)F)c1)[C@H](C)[C@H](Cn1ccnc1)C2)c1c(F)cccc1Cl` were, in that order, above 7.00, “*** (a value in the range of greater than 150 to 200)”, 5.30 to 7.00 and “** (a value in the range of greater than 90 to 150)”.
Regarding `CCn1cc(S(=O)(=O)N2C[C@H](CCc3n[nH]c(=O)o3)Oc3ccc(/C=C(\C)c4c(F)cccc4Cl)cc32)c(OCCO)n1`, on RORγ-LBD, the negative-log EC50 (pEC50) was above 7.00 and the “TR-FRET Assay Max Response” value is “**** (a value greater than 200)”. Besides, on Gal4-RORγ-LBD, the pEC50 is 5.30 to 7.00 and the “Ga14-RORγ Assay Max Response” value is on record as “** (a value in the range of greater than 90 to 150)”.
In the same order, the values of `C/C(=C\c1ccc2c(c1)N(S(=O)(=O)c1cccc(C(F)(F)F)c1)[C@H](C)[C@H](Cn1cccn1)C2)c1c(F)cccc1Cl` are above 7.00, “*** (a value in the range of greater than 150 to 200)”, 5.30 to 7.00 and “** (a value in the range of greater than 90 to 150)”.
The like results for `C/C(=C\c1ccc2c(c1)N(S(=O)(=O)c1cccc(C(F)(F)F)c1)C[C@H](CCOc1noc(=O)[nH]1)O2)c1c(F)cccc1Cl` were, in that order, above 7.00, “*** (a value in the range of greater than 150 to 200)”, 5.30 to 7.00 and “** (a value in the range of greater than 90 to 150)”.
The like results for `CCOc1ncc(Cl)cc1S(=O)(=O)N1C[C@H](CCc2n[nH]c(=O)o2)Oc2ccc(/C=C(\C)c3c(F)cccc3Cl)cc21` were, in that order, above 7.00, “*** (a value in the range of greater than 150 to 200)”, 5.30 to 7.00 and “** (a value in the range of greater than 90 to 150)”.
As for `CCn1cc(S(=O)(=O)N2C[C@H](CCOc3noc(=O)[nH]3)Oc3ccc(/C=C(\C)c4c(F)cccc4Cl)cc32)c(Cl)n1`, on RORγ-LBD, the pEC50 was above 7.00 and the “TR-FRET Assay Max Response” value is “*** (a value in the range of greater than 150 to 200)”. Further, on Gal4-RORγ-LBD, the pEC50 was 5.30 to 7.00 and the “Ga14-RORγ Assay Max Response” value is given as “*** (a value in the range of greater than 150 to 200)”.
For `CCOc1ncc(C(F)(F)F)cc1S(=O)(=O)N1C[C@H](CCc2n[nH]c(=O)o2)Oc2ccc(/C=C(\C)c3c(F)cccc3Cl)cc21`, at RORγ-LBD, the pEC50 is above 7.00 and the “TR-FRET Assay Max Response” value was “**** (a value greater than 200)”. Also, on Gal4-RORγ-LBD, the pEC50 was 5.30 to 7.00 and the “Ga14-RORγ Assay Max Response” value is reported as “** (a value in the range of greater than 90 to 150)”.
Turning to `C/C(=C\c1ccc2c(c1)N(S(=O)(=O)c1cccc(C(F)(F)F)c1)C[C@H](CCc1nn[nH]n1)O2)c1c(F)cccc1Cl`, at RORγ-LBD, the pEC50 is above 7.00 and the “TR-FRET Assay Max Response” value is recorded as “*** (a value in the range of greater than 150 to 200)”. At Gal4-RORγ-LBD, the pEC50 is 5.30 to 7.00 and the “Ga14-RORγ Assay Max Response” value was “*** (a value in the range of greater than 150 to 200)”.
